Experimental data published in PMC12346198 (Cancers, 2025).
Where two headings read alike, the source gives them in different places.

Key:
[1] = test system: SNU475 cells; test: Hollow fiber assay (HFA) model of AR-SV HCC; assay type: in vivo; conditions: BID PO one week; niclosamide 75, valine–niclosamide 106.1, valine–compound #7 87.3, compound #7 62.9 mg/kg; nude mice
From the text: The hollow fiber procedures were based upon those developed by Hollingshead et al. with technical consultation kindly provided by Drs. Joanna Burdette and Dan Lantvit (University of Illinois Chicago, Chicago, IL, USA). […] In order to utilize a PO dosing approach with the HFA, we extended the traditional HFA timeline to establish angiogenesis, as noted in the literature. […] Hollow fibers (KrosFlo Implant Membranes, M138615, Repligen, Waltham, MA, USA) were filled with 3 × 10^6 SNU475 cells/mL per length and heat-sealed into 2 cm lengths on Day −1. On Day 0, three fibers were implanted into 20-week-old male outbred homozygous athymic nude mice (Foxn1^nu/Foxn1^nu, The Jackson Laboratory, Bar Harbor, ME, USA) subcutaneously parallel to the spine. Following a 14-day waiting period to allow for angiogenesis around the fibers, treatment was initiated. […] On Day 21, mice were euthanized and hollow fibers were explanted. The MTT assay was performed according to the KrosFlo Implant Membrane protocol utilizing Thiazolyl Blue Tetrazolium Bromide (M2128, MilliporeSigma, Burlington, MA, USA).

[2] = Single-dose IV and PO pharmacokinetics in mice; assay type: in vivo, male C57BL/6 mice
Procedure: The in-life study and quantitative analysis of plasma samples using LC/MS were performed at Charles River Laboratories, Inc. (Wilmington, MA, USA).

[3] = test system: Primary Male Hepatocytes; test: CCK-8 cytotoxicity assay, primary male hepatocytes; assay type: cell-based; conditions: 72 h treatment
Procedure: (§1) The cytotoxicity of compounds was determined by the CCK-8 assay (Cell Counting Kit-8, CK04, Dojindo Molecular Technologies, Kumamoto, Japan). Cell lines were plated at 10,000 cells/well in 96-well plates and incubated overnight to allow for adherence (5% CO2, 37 °C). […] Cells were placed back in the incubator for 72 h treatment. CCK-8 reagent was added, and plates were further incubated 1–4 h as directed by the supplier’s instructions. Optical density was measured using a Biotek Synergy H1 plate reader at 450 nm. Primary hepatocytes were plated at 30,000 cells or 50,000 cells/well and maintained according to the technical information bulletin provided by the supplier. Upon treatment, maintenance media were supplemented with 10% FBS and fresh test compound for all subsequent media changes, as directed.

[4] = test system: HepG2; test: CCK-8 cytotoxicity assay, HepG2; assay type: cell-based, human; conditions: 72 h treatment
Procedure: as §1

[5] = test system: THLE-2; test: CCK-8 cytotoxicity assay, THLE-2; assay type: cell-based; conditions: Homo sapiens, 72 h treatment
Procedure: as §1

[6] = test system: SNU423; test: CCK-8 cytotoxicity assay, SNU423; assay type: cell-based; conditions: Homo sapiens, SNU-423, 72 h treatment
Procedure: as §1

[7] = 40 mg/kg dose PO; listed as niclosamide; cited from earlier work
[8] = test system: SNU475 cells; test: Cell viability under invasion assay conditions; assay type: cell-based, human; conditions: 1 µM
Procedure: (§2) Figure S3. […] (A) SNU475 cells were treated with 10 µM of each
(§3) compound for 24 hours before analysis by AR ELISA. (B ) (Left) Cellular invasion assay was performed on SNU475
(§4) Mean + SD One way ANOVA with
(§5) (Right) Cell viability was
(§6) (1 picture or pasted object on this page, not shown here)

[9] = test system: SNU475; test: CCK-8 cytotoxicity assay, SNU475; assay type: cell-based, human; conditions: 72 h treatment
Procedure: as §1

[10] = test system: SNU475 cells; test: Cellular invasion assay, SNU475; assay type: cell-based, human; conditions: 1 µM and 10 µM, 48 h of treatment
Procedure: The BioCoat Matrigel invasion assay was performed according to the manufacturer’s instructions (BioCoat Matrigel Invasion Chambers, 354480, Corning, Corning, NY, USA). AR-negative clones and parental lines (SNU475 and HCCLM3) were hormone-deprived in phenol red-free RPMI1640 with 5% csFBS (±Pen-Strep) for 24 h. A total of 40,000 cells were suspended in a well insert in 0.5 mL of phenol red-free medium without csFBS over a well of 0.75 mL phenol red-free medium with 5% csFBS as a chemoattractant and incubated for 24 h. Invaded cells were fixed in 4% paraformaldehyde and stained with 0.1% crystal violet in 20% methanol. Cells in 10 different and non-overlapping fields of each membrane were photographed and counted. The Fluorometric QCM™ 24-Well Cell Invasion Assay (ECM 554, MilliporeSigma, Burlington, MA, USA) was executed as per the manufacturer’s protocol using 1.25 × 10^5 cells in 250 μL of serum-free medium and incubated for 24–72 h. Following cell lysis and staining with CyQuant GR Dye, fluorescence was measured in a plate reader using a 480/520 nm filter set.
as §2, §3, §4, §5, §6

[11] = biological target: T1, AR-SV (Homo sapiens, UniProt P10275); test: AR protein ELISA in SNU475 cells; assay type: cell-based; conditions: 10 µM, 24 hours, AR ELISA (Figure S3A)
T1 sequence (P10275 1-628): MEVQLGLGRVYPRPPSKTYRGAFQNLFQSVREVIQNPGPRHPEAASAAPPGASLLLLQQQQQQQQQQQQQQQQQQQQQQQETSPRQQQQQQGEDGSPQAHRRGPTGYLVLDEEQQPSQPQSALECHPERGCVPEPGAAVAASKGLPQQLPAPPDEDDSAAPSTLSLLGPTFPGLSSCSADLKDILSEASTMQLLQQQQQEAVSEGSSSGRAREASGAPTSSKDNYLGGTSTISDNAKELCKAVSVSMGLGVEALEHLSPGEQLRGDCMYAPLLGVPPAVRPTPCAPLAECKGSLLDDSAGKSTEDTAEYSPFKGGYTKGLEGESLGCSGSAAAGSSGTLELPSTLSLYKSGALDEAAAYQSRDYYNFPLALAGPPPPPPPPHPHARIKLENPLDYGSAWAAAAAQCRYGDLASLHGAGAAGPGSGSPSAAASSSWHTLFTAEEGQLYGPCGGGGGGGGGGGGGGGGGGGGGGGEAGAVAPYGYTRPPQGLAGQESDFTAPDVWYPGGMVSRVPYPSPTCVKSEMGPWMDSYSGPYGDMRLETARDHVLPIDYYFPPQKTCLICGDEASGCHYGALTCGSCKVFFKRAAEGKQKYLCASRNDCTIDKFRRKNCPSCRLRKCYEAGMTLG
Procedure: as §2, §3, §4, §5, §6

[12] = Plasma stability, human plasma; assay type: in vitro ADME
Procedure: (§7) Samples were taken at 0, 30, 60, 120, 180, and 360 min to quantitate the disappearance of the valine conjugates and appearance of a cleaved parent. The matrix stability assay in plasma and the quantitative analysis of samples by UV-VIS HPLC were performed according to the standard protocol at Charles River Laboratories, Inc. (Wilmington, MA, USA).

[13] = Plasma stability, murine plasma; assay type: in vitro ADME, mouse
Procedure: as §7

[14] = male, C57BL/6, mouse, in vivo, iv, 2 mg/kg
[15] = male, C57BL/6, mouse, in vivo, po, 40 mg/kg
[16] = IV, 2 mg/kg (valine conjugates 2 mg/kg EQV)
[17] = IV, 2 mg/kg (valine conjugates 2 mg/kg EQV), non-compartmental analysis
[18] = PO, 40 mg/kg (valine conjugates 40 mg/kg EQV)
[19] = male, C57BL/6, mouse, plasma, iv, 2 mg/kg, IV, 2 mg/kg (valine conjugates 2 mg/kg EQV), analyte = dosed compound, non-compartmental analysis, read-out: AUCall, Geo Mean
[20] = male, C57BL/6, mouse, plasma, iv, 2 mg/kg, IV, 2 mg/kg (valine conjugates 2 mg/kg EQV), read-out: Cmax, Geo Mean
[21] = male, C57BL/6, mouse, plasma, po, 40 mg/kg, PO, 40 mg/kg (valine conjugates 40 mg/kg EQV), analyte = dosed compound, non-compartmental analysis, read-out: AUCall, Geo Mean
[22] = male, C57BL/6, mouse, plasma, po, 40 mg/kg, PO, 40 mg/kg (valine conjugates 40 mg/kg EQV), read-out: Cmax, Geo Mean
[23] = male, C57BL/6, mouse, plasma, IV, 2 mg/kg (valine conjugates 2 mg/kg EQV), read-out: Tmax, Geo Mean
[24] = male, C57BL/6, mouse, plasma, PO, 40 mg/kg (valine conjugates 40 mg/kg EQV), read-out: Tmax, Geo Mean
[25] = male, C57BL/6, mouse, plasma, single IV dose, 2 mg/kg or molar equivalent, read-out: Systemic clearance following an IV dose (converted)

| SMILES | Cell viability within hollow fibers (MTT assay) [1] | IC50 ([3]; Hepatocyte, 72 h) [nM] | IC50 ([4]; Homo sapiens, HepG2, 72 h) [nM] | IC50 [5] [nM] | IC50 [6] [nM] | IC50 [9] [nM] | IC50 ([9]; Homo sapiens, SNU-475, 72 h) [nM] | HL_Lambda_z, Geo Mean [2, 16] [h] | IV: Clobs, Geo Mean [2, 17] [L/h] | HL_Lambda_z, Geo Mean [2, 18] [h] | PO: Cl_Fobs, Geo Mean [2, 18] [L/h] | AUC [2, 19] [µM·h] | Cmax [2, 20] [µM] | AUC [2, 21] [µM·h] | Cmax [2, 22] [µM] | Tmax [2, 23] [min] | Tmax [2, 24] [min] | clearance [2, 25] [mL/min] | Decrease of AR protein levels compared to enzalutamide and sorafenib [11] | further results |
| --- | --- | --- | --- | --- | --- | --- | --- | --- | --- | --- | --- | --- | --- | --- | --- | --- | --- | --- | --- | --- |
| O=C(Nc1ccc([N+](=O)[O-])cc1Cl)c1cc(Cl)ccc1O [Niclosamide, niclosamide, reference compound] | no differences in cell viability | 7200 | 600 | 370 | 250 | 1330 | 1300 | – | – | – | – | – | – | – | – | – | – | – | – | Expected plasma levels for up to 8 h post-dose ([2]; C57BL/6, mouse, in vivo): approximately 0.2 µM; PO: Cl_Fobs, Geo Mean ([2]; male, C57BL/6, mouse, in vivo): 0.78 L/h; Tmax [2, 14]: 4.8 min; clearance [2, 14]: 1.33 mL/min; Cmax ([2]; male, C57BL/6, mouse, in vivo, iv, 2 mg/kg, Cmax, Geo Mean): 6.03 µM; AUCall of parent following an oral dose of its valine conjugate [2, 15]: 0.8 µM·h; Tmax [2, 15]: 25.2 min; AUC ([2]; male, C57BL/6, mouse, in vivo, po, 40 mg/kg, AUCall following an oral dose of the unconjugated compound): 3.25 µM·h; Cmax ([2]; male, C57BL/6, mouse, in vivo, po, 40 mg/kg, Cmax following an oral dose of the unconjugated compound): 1.65 µM; Cmax ([2]; male, C57BL/6, mouse, in vivo, po, 40 mg/kg, Cmax, Geo Mean): 1.65 µM; IC50 [3]: 7160 nM; Plasma niclosamide concentration 4 h after oral administration [7]: roughly 0.10 µM; Cell viability at 48 h [8]: not impacted; SNU475 invasion [10]: decreased invasion |
| O=C(Nc1ccc(C(F)(F)F)cc1Cl)c1cc(Cl)ccc1O [compound #7] | no differences in cell viability | > 30000 | 450 | 310 | 280 | 6600 | 4000 | 4.85 | 0.04 | 3.58 | 0.21 | 3.7 | 6.98 | 13 | 5.79 | 4.8 | 15 | 0.667 | more effectively decrease AR protein levels | Expected plasma levels for up to 8 h post-dose ([2]; linearly scaled from PK data, BID 75 mg/kg niclosamide, 105.7 mg/kg valine–niclosamide, 87.3 mg/kg valine–compound #7, 62.9 mg/kg compound #7): 0.86 µM; AUC ([2]; male, C57BL/6, mouse, plasma, po, 40 mg/kg, PO 40 mg/kg of the parent compound, read-out: AUCall following an oral dose of the unconjugated compound): 13 µM·h; Cmax ([2]; male, C57BL/6, mouse, plasma, po, 40 mg/kg, PO 40 mg/kg of the parent compound, read-out: Cmax following an oral dose of the unconjugated compound): 5.78 µM |
| O=C(Nc1ccc(C(F)(F)F)cc1)c1cc(Cl)ccc1O [compound #11] | – | 9500 | 1900 | 560 | 580 | 7200 | – | 0.96 | 0.03 | 2.68 | 0.35 | 5.06 | 11.3 | 7.98 | 6.08 | 4.8 | 25.2 | 0.5 | more effectively decrease AR protein levels | AUC ([2]; male, C57BL/6, mouse, plasma, po, 40 mg/kg, single PO dose, 40 mg/kg or molar equivalent, analyte = dosed compound, read-out: AUCall following an oral dose): 7.98 µM·h; IC50 ([3]; listed as Compound #11): 9470 nM; IC50 ([4]; listed as Compound #11): 1860 nM; IC50 ([9]; listed as Compound #11): 890 nM |
| CC(C)[C@H](N)C(=O)OCCOCn1cnc2c(=O)[nH]c(N)nc21 [valacyclovir] | – | – | – | – | – | – | – | – | – | – | – | – | – | – | – | – | – | – | – | Formation of the cleaved parent ([12]; 360 min): readily detectable acyclovir; Percentage of pro-drug remaining intact ([12]; 6 h (360 min)): 66.4%; Formation of the cleaved parent ([13]; 360 min): readily detectable acyclovir; Percentage of pro-drug remaining intact ([13]; 6 h (360 min)): 37.7% |
